# Test: recombinant UMI read abundance after kanamycin selection (control-corrected) (log10(CPM+1)); higher = more efficient recombination; extreme values may be limits of the assay; sequences stand for … in AGTGCAGAGAAAATCGGCCAGTTTTCTCTGCCTGCAGTCCGCATGCCGTGGGACCCCTTGGGTTCTAACCTGTTGCCTAGATTTATGCAGCGGACTGCCTTTCTCCCAAAGTGATAAACCGG…AGGTTGGTTTCACT; site = the 11-nt donor
# How it was run: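 In Escherichia coli, a pool of donor and donor-binding-loop pairs, each with a 12-nt UMI, was tested for the IS621 bridge recombinase. Plating was on IPTG (0.07 mM) plus kanamycin, or without selection, in two replicates. Recombinant UMIs were amplified by PCR across the donor–target junction and sequenced, and counts were reported as log10(CPM+1) after averaging and control-derived scaling.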
# 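Note: IS621 bridge recombinase in Escherichia coli cells against a fixed T5 target plasmid.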
row,Sequence,recombinant UMI read abundance (log10)
1,TGAGAGACATGGACCGGTTTTCCCGGTAATCCGTATTTGCG (site TAAGAGACTCG),2.07
2,TGAGAGACATGGACCGGTTTTCCCGGTAATCCGTATTTGCG (site TCAGAGACTCG),0.426
3,TGAGAGACATGGACCGGTTTTCCCGGTAATCCGTATTTGCG (site TGAGAGACTCG),2.22
4,TGAGAGACATGGACCGGTTTTCCCGGTAATCCGTATTTGCG (site TTAGAGACTCG),1.19
5,TGAGGTGCATGGACCGGTTTTCCCGGTAATCCGTATTTGGT (site TGAGGTGCTAC),0.98
6,TGAGGTTCATGGACCGGTTTTCCCGGTAATCCGTATTTGAC (site TGAGGTTCTGT),2.17
7,TGAGTCGCATGGACCGGTTTTCCCGGTAATCCGTATTTGTG (site TGAGTCGCTCA),0.474
8,TGATAATCATGGACCGGTTTTCCCGGTAATCCGTATTTGCT (site CGATCATCTAG),0
9,TGATAATCATGGACCGGTTTTCCCGGTAATCCGTATTTGCT (site TGATAATCTAG),2.45
10,TGATTCCCATGGACCGGTTTTCCCGGTAATCCGTATTTGAC (site TGATTCCCTGT),0.794
11,TGCAAGGCATGGACCGGTTTTCCCGGTAATCCGTATTTGGT (site TGCAAGGCTAC),0.43
12,TGCAAGGCATGGACCGGTTTTCCCGGTAATCCGTATTTGGT (site TGCCAGGCTAC),0.0164
13,TGCAAGGCATGGACCGGTTTTCCCGGTAATCCGTATTTGGT (site TGCGAGGCTAC),0.0243
14,TGCAAGGCATGGACCGGTTTTCCCGGTAATCCGTATTTGGT (site TGCTAGGCTAC),0.0166
15,TGCAATCCATGGACCGGTTTTCCCGGTAATCCGTATTTGTT (site CGGAATCCTAA),0.0106
16,TGCAATCCATGGACCGGTTTTCCCGGTAATCCGTATTTGTT (site TGCAATCCTAA),0.672
17,TGCAATTCATGGACCGGTTTTCCCGGTAATCCGTATTTGCC (site TACAATTCTGG),0
18,TGCAATTCATGGACCGGTTTTCCCGGTAATCCGTATTTGCC (site TCCAATTCTGG),0
19,TGCAATTCATGGACCGGTTTTCCCGGTAATCCGTATTTGCC (site TGCAATTCTGG),0.00516
20,TGCAATTCATGGACCGGTTTTCCCGGTAATCCGTATTTGCC (site TTCAATTCTGG),0
21,TGCACGACATGGACCGGTTTTCCCGGTAATCCGTATTTGCC (site TGCACGACTGG),1.52
22,TGCACGTCATGGACCGGTTTTCCCGGTAATCCGTATTTGTC (site TGCACGTCTGA),1.26
23,TGCACTGCATGGACCGGTTTTCCCGGTAATCCGTATTTGCA (site TGCACTGCTTG),0.198
24,TGCCACGCATGGACCGGTTTTCCCGGTAATCCGTATTTGTC (site TGCCACGCTGA),2.07
25,TGCCAGGCATGGACCGGTTTTCCCGGTAATCCGTATTTGGT (site TGCAAGGCTAC),0.016

row,Sequence,recombinant UMI read abundance (log10)
1,TGCCAGGCATGGACCGGTTTTCCCGGTAATCCGTATTTGGT (site TGCCAGGCTAC),0.00408
2,TGCCAGGCATGGACCGGTTTTCCCGGTAATCCGTATTTGGT (site TGCGAGGCTAC),0.0315
3,TGCCAGGCATGGACCGGTTTTCCCGGTAATCCGTATTTGGT (site TGCTAGGCTAC),0.0336
4,TGCCATGCATGGACCGGTTTTCCCGGTAATCCGTATTTGGA (site TGCCATGCTTC),0.294
5,TGCCGAACATGGACCGGTTTTCCCGGTAATCCGTATTTGAT (site TGCCGAACTAT),1.59
6,TGCCGACCATGGACCGGTTTTCCCGGTAATCCGTATTTGTT (site TGCCGACCTAA),0.0263
7,TGCCGTTCATGGACCGGTTTTCCCGGTAATCCGTATTTGAG (site TGCCGTTCTCT),0.00558
8,TGCCTAACATGGACCGGTTTTCCCGGTAATCCGTATTTGAA (site TGCCTAACTTT),0.0425
9,TGCCTAGCATGGACCGGTTTTCCCGGTAATCCGTATTTGTT (site AGCCTAGCTAA),0.014
10,TGCCTAGCATGGACCGGTTTTCCCGGTAATCCGTATTTGTT (site CGCCTAGCTAA),0.0169
11,TGCCTAGCATGGACCGGTTTTCCCGGTAATCCGTATTTGTT (site GGCCTAGCTAA),0.0245
12,TGCCTAGCATGGACCGGTTTTCCCGGTAATCCGTATTTGTT (site TGCCTAGCTAA),0.0135
13,TGCCTCTCATGGACCGGTTTTCCCGGTAATCCGTATTTGCG (site TGCCTCTCTCG),0.00512
14,TGCGAGGCATGGACCGGTTTTCCCGGTAATCCGTATTTGGT (site TGCAAGGCTAC),0.35
15,TGCGAGGCATGGACCGGTTTTCCCGGTAATCCGTATTTGGT (site TGCCAGGCTAC),0.0134
16,TGCGAGGCATGGACCGGTTTTCCCGGTAATCCGTATTTGGT (site TGCGAGGCTAC),0.0084
17,TGCGAGGCATGGACCGGTTTTCCCGGTAATCCGTATTTGGT (site TGCTAGGCTAC),0.242
18,TGCGGAACATGGACCGGTTTTCCCGGTAATCCGTATTTGCG (site TGCGGAACTCG),0.885
19,TGCGGCACATGGACCGGTTTTCCCGGTAATCCGTATTTGCC (site TGCGGCACTGG),1.44
20,TGCGGCACATGGACCGGTTTTCCCGGTAATCCGTATTTGGA (site TGCGGCACTTC),0.0197
21,TGCGGGCCATGGACCGGTTTTCCCGGTAATCCGTATTTGCT (site TGCGGGCCTAG),0
22,TGCGGTTCATGGACCGGTTTTCCCGGTAATCCGTATTTGAA (site TGCGGTTCTTT),0.557
23,TGCTACGCATGGACCGGTTTTCCCGGTAATCCGTATTTGGT (site TGCTAAGCTAC),0.00535
24,TGCTACGCATGGACCGGTTTTCCCGGTAATCCGTATTTGGT (site TGCTACGCTAC),0.202
25,TGCTACGCATGGACCGGTTTTCCCGGTAATCCGTATTTGGT (site TGCTAGGCTAC),0

row,Sequence,recombinant UMI read abundance (log10)
1,TGCTACGCATGGACCGGTTTTCCCGGTAATCCGTATTTGGT (site TGCTATGCTAC),0.00567
2,TGCTAGCCATGGACCGGTTTTCCCGGTAATCCGTATTTGGT (site TGCTAGACTAC),0.00818
3,TGCTAGCCATGGACCGGTTTTCCCGGTAATCCGTATTTGGT (site TGCTAGCCTAC),0.0034
4,TGCTAGCCATGGACCGGTTTTCCCGGTAATCCGTATTTGGT (site TGCTAGGCTAC),0.0165
5,TGCTAGCCATGGACCGGTTTTCCCGGTAATCCGTATTTGGT (site TGCTAGTCTAC),0.00984
6,TGCTAGGCATGGACCGGTTTTCCCGGTAATCCGTATTTGCT (site TGCTAGGCTAA),0.0205
7,TGCTAGGCATGGACCGGTTTTCCCGGTAATCCGTATTTGCT (site TGCTAGGCTAC),0.0125
8,TGCTAGGCATGGACCGGTTTTCCCGGTAATCCGTATTTGCT (site TGCTAGGCTAG),0.521
9,TGCTAGGCATGGACCGGTTTTCCCGGTAATCCGTATTTGCT (site TGCTAGGCTAT),0.00772
10,TGCTAGGCATGGACCGGTTTTCCCGGTAATCCGTATTTGGA (site TGCTAGGCTAC),0.138
11,TGCTAGGCATGGACCGGTTTTCCCGGTAATCCGTATTTGGA (site TGCTAGGCTCC),0.0137
12,TGCTAGGCATGGACCGGTTTTCCCGGTAATCCGTATTTGGA (site TGCTAGGCTGC),0
13,TGCTAGGCATGGACCGGTTTTCCCGGTAATCCGTATTTGGA (site TGCTAGGCTTC),0.261
14,TGCTAGGCATGGACCGGTTTTCCCGGTAATCCGTATTTGGC (site TGCTAGGCTAC),0.0365
15,TGCTAGGCATGGACCGGTTTTCCCGGTAATCCGTATTTGGC (site TGCTAGGCTCC),0.013
16,TGCTAGGCATGGACCGGTTTTCCCGGTAATCCGTATTTGGC (site TGCTAGGCTGC),0
17,TGCTAGGCATGGACCGGTTTTCCCGGTAATCCGTATTTGGC (site TGCTAGGCTTC),0.0105
18,TGCTAGGCATGGACCGGTTTTCCCGGTAATCCGTATTTGTT (site TGCTAGGCTAA),0.282
19,TGCTAGGCATGGACCGGTTTTCCCGGTAATCCGTATTTGTT (site TGCTAGGCTAC),0.00683
20,TGCTAGGCATGGACCGGTTTTCCCGGTAATCCGTATTTGTT (site TGCTAGGCTAG),0.00242
21,TGCTAGGCATGGACCGGTTTTCCCGGTAATCCGTATTTGTT (site TGCTAGGCTAT),0
22,TGCTGCCCATGGACCGGTTTTCCCGGTAATCCGTATTTGTC (site TGCTGCCCTGA),0.338
23,TGGAACCCATGGACCGGTTTTCCCGGTAATCCGTATTTGTT (site CGGAATCCTAA),0
24,TGGAACCCATGGACCGGTTTTCCCGGTAATCCGTATTTGTT (site TGGAACCCTAA),1.15
25,TGGAAGACATGGACCGGTTTTCCCGGTAATCCGTATTTGTA (site AGGAAGACTTG),0.00598

# From the supplement of paper PMC11208160
